Data: ChEMBL document CHEMBL1153189, “The comparative antimalarial properties of weak base and neutral synthetic ozonides” (Bioorg Med Chem Lett, 2010)
Converted amounts (≈) assume the structure as drawn.

How the values were obtained:
Plasmodium falciparum [1] = experiment: Antimalarial activity against chloroquine-resistant Plasmodium falciparum K1; type: functional, organism-based
Plasmodium falciparum [2] = experiment: Antimalarial activity against chloroquine-sensitive Plasmodium falciparum NF54; type: functional, organism-based
Plasmodium berghei [3] = experiment: Antimalarial activity against Plasmodium berghei infected in NMRI mice (Mus musculus) assessed as reduction in parasitaemia at 10 mg/kg, perorally administered 1 day post infection; type: functional; design: scale not given: the % may be the effect or the level left; conditions: route oral
Plasmodium berghei [4] = experiment: Antimalarial activity against Plasmodium berghei infected in NMRI mice (Mus musculus) assessed as reduction in parasitaemia at 3 mg/kg, perorally administered for 3 days post infection; type: functional; design: scale not given: the % may be the effect or the level left; conditions: route oral
Plasmodium berghei [5] = experiment: Antimalarial activity against Plasmodium berghei infected in NMRI mice (Mus musculus) assessed as survival time at 3 mg/kg, perorally administered for 3 days post infection; type: functional; conditions: route oral
Plasmodium berghei [6] = experiment: Antimalarial activity against Plasmodium berghei infected in NMRI mice (Mus musculus) assessed as cure rat at 3 mg/kg, perorally administered for 3 days post infection measured after 30 days; type: functional; conditions: route oral
[7] = Plasma concentration in rat at 100 mg/kg, po after 5 days; type: ADME, organism-based; design: dose 100 mg/kg, route oral
Cytochrome P450 3A4 = Cytochrome P450 3A4 (Homo sapiens, UniProt P08684); experiment: Inhibition of CYP3A4 up to 50 uM; type: ADME
Cytochrome P450 3A4, sequence (P08684 whole entry): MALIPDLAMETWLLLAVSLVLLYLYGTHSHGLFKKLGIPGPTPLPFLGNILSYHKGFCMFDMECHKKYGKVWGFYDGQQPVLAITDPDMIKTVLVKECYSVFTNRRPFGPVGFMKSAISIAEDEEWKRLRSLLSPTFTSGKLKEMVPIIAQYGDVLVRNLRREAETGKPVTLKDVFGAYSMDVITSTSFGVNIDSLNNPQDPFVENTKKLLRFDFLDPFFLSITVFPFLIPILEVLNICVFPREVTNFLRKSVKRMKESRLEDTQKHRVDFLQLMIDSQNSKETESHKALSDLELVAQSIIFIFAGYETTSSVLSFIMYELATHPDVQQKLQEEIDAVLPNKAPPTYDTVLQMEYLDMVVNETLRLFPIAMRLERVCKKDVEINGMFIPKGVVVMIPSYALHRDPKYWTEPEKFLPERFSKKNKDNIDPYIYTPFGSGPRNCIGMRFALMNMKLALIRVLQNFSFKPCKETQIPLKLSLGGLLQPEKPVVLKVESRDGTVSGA

Cytochrome P450 2C9 = Cytochrome P450 2C9 (Homo sapiens, UniProt P11712); experiment: Inhibition of CYP2C9 up to 50 uM; type: ADME
Cytochrome P450 2C9, sequence (P11712 whole entry): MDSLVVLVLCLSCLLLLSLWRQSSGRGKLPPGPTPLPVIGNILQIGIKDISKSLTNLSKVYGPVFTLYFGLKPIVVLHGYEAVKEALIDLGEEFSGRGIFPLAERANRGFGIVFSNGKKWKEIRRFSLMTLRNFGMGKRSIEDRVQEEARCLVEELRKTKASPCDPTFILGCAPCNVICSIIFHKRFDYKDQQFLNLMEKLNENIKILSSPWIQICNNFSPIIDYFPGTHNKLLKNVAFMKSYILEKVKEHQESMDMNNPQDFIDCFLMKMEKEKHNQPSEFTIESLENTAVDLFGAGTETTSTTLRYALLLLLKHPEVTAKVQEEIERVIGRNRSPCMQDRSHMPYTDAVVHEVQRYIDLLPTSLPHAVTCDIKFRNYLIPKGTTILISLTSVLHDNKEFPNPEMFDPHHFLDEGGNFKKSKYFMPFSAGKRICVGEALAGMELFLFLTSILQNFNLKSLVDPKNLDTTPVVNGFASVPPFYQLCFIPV

Cytochrome P450 2D6 = Cytochrome P450 2D6 (Homo sapiens, UniProt P10635); experiment: Inhibition of CYP2D6 up to 50 uM; type: ADME
Cytochrome P450 2D6, sequence (P10635 whole entry): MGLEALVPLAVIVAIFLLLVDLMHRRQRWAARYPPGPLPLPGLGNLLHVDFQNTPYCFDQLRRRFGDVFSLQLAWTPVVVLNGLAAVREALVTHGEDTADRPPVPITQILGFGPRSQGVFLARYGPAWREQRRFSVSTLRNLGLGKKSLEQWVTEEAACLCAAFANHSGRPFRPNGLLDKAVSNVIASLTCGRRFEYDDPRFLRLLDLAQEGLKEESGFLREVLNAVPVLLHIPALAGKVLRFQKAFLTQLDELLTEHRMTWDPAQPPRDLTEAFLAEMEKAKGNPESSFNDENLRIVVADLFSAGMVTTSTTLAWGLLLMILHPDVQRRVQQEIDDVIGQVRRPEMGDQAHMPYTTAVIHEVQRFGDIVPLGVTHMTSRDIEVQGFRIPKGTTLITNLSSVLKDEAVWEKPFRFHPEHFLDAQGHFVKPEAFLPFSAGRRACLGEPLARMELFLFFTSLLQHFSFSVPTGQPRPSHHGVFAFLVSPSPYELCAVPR

Rattus norvegicus = experiment: Plasma concentration in rat at 300 mg/kg, po after 5 days; type: ADME, organism-based; design: dose 300 mg/kg, route oral; conditions: in vivo, 120 h
[8] = Lipophilicity, log D at pH 7.4; type: physicochemical; conditions: buffer
[9] = Half life in Sprague-Dawley rat at 10 mg/kg, iv; type: ADME, organism-based; design: dose 10 mg/kg, route intravenous; conditions: Sprague-Dawley, in vivo
[10] = Volume of distribution in Sprague-Dawley rat at 10 mg/kg, iv; type: ADME, organism-based; design: dose 10 mg/kg, route intravenous; conditions: Sprague-Dawley, in vivo
[11] = Blood clearance in Sprague-Dawley rat at 10 mg/kg, iv; type: ADME, organism-based; design: dose 10 mg/kg, route intravenous; conditions: whole blood

Structure (SMILES) | IC50 (Plasmodium falciparum [1]) [ng/mL] | IC50 (Plasmodium falciparum [2]) [ng/mL] | Activity (Plasmodium berghei [3]) [%] | Activity (Plasmodium berghei [6]) [%] | also measured
NC(=O)C(=O)NC[C@H]1CC[C@]2(CC1)OO[C@]1(O2)C2CC3CC(C2)CC1C3 | 0.44 (≈ 1.21 nM) | 0.71 (≈ 1.95 nM) | 99.5 | – | –
CC(C)(N)CNC(=O)C(=O)NC[C@H]1CC[C@]2(CC1)OO[C@]1(O2)C2CC3CC(C2)CC1C3.CS(=O)(=O)O | 0.4 | 0.54 | 99.9 | 0 | Activity (Plasmodium berghei [4]): >99.9%; Survival (Plasmodium berghei [5]): 22.8 days
Cc1ccc(S(=O)(=O)O)cc1.N[C@H]1CC[C@H](NC(=O)C(=O)NC[C@H]2CC[C@]3(CC2)OO[C@]2(O3)C3CC4CC(C3)CC2C4)CC1 | 0.7 | 1.3 | 99.9 | 40 | Activity (Plasmodium berghei [4]): >99.9%; Survival (Plasmodium berghei [5]): 25.2 days; concentration at 120 h [7]: 3700 ng/mL; Activity (Cytochrome P450 3A4): Not Active; Activity (Cytochrome P450 2C9): Not Active; Activity (Cytochrome P450 2D6): Not Active; Cp (Rattus norvegicus): 100 mg/kg
O=C(NC[C@H]1CC[C@]2(CC1)OO[C@]1(O2)C2CC3CC(C2)CC1C3)c1ccccn1 | – | – | 98 | – | –
CC(=O)NC[C@H]1CC[C@]2(CC1)OO[C@]1(O2)C2CC3CC(C2)CC1C3 | 0.63 (≈ 1.88 nM) | 0.84 (≈ 2.5 nM) | 98 | – | –
Cc1ccc(S(=O)(=O)O)cc1.O=C(CN1CCS(=O)(=O)CC1)NC[C@H]1CC[C@]2(CC1)OO[C@]1(O2)C2CC3CC(C2)CC1C3 | 4.6 | 5.5 | 86 | – | logD [8]: 4.5
O=C(O)C(=O)NC[C@H]1CC[C@]2(CC1)OO[C@]1(O2)C2CC3CC(C2)CC1C3 | 58 (≈ 159 nM) | 59 (≈ 161 nM) | <40 | – | –
CS(=O)(=O)CC(=O)NCC1CC[C@]2(CC1)OO[C@]1(O2)C2CC3CC(C2)CC1C3 (some centres undefined) | – | – | 99.2 | – | –
CS(=O)(=O)O.O=C(NC[C@H]1CC[C@]2(CC1)OO[C@]1(O2)C2CC3CC(C2)CC1C3)C(=O)NC1CCNCC1 | 0.56 | 0.79 | >99.9 | 20 | Activity (Plasmodium berghei [4]): >99.9%; Survival (Plasmodium berghei [5]): 22.4 days
CN1CCN(C(=O)NC[C@H]2CC[C@]3(CC2)OO[C@]2(O3)C3CC4CC(C3)CC2C4)CC1 | 0.2 (≈ 0.477 nM) | 0.34 (≈ 0.81 nM) | 99.9 | – | –
CC(C)(N)C(=O)NC[C@H]1CC[C@]2(CC1)OO[C@]1(O2)C2CC3CC(C2)CC1C3 | 0.5 (≈ 1.32 nM) | 0.36 (≈ 0.951 nM) | 99.9 | 0 | Activity (Plasmodium berghei [4]): >99.9%
CN(C)C(=O)NC[C@H]1CC[C@]2(CC1)OO[C@]1(O2)C2CC3CC(C2)CC1C3 | 1.1 (≈ 3.02 nM) | 1.5 (≈ 4.12 nM) | 99.4 | – | –
Nc1n[nH]c(C(=O)NC[C@H]2CC[C@]3(CC2)OO[C@]2(O3)C3CC4CC(C3)CC2C4)n1 | – | – | 99.8 | – | –
Cc1ccc(S(=O)(=O)O)cc1.O=C(CNCC1CC1)NC[C@H]1CC[C@]2(CC1)OO[C@]1(O2)C2CC3CC(C2)CC1C3 | 0.36 | 1.2 | – | – | –
O=C(NC[C@H]1CC[C@]2(CC1)OO[C@]1(O2)C2CC3CC(C2)CC1C3)c1cccnc1 | 0.97 (≈ 2.43 nM) | – | 99.6 | – | –
C[C@H]1[C@@H](O)O[C@@H]2O[C@@]3(C)CC[C@H]4[C@H](C)CC[C@@H]1[C@@]24OO3 [ARTENIMOL] | – | – | – | – | half-life [9]: 26 min; Vd [10]: 3 L/kg; clearance [11]: 72 mL/min/kg
C[C@H]1[C@H](OC(=O)CCC(=O)O)O[C@@H]2O[C@@]3(C)CC[C@H]4[C@H](C)CC[C@@H]1[C@@]24OO3 [ARTESUNATE] | – | – | 67 | 0 | Activity (Plasmodium berghei [4]): 70%; logD [8]: 3.5
CCN(CC)CCCC(C)Nc1ccnc2cc(Cl)ccc12 (centres undefined) [CHLOROQUINE] | – | – | – | 0 | Survival (Plasmodium berghei [5]): 9.4 days
OC(c1cc(C(F)(F)F)nc2c(C(F)(F)F)cccc12)C1CCCCN1 (centres undefined) [MEFLOQUINE] | – | – | – | 0 | –
